The subject of test [1] is TMPRSS2. The test is described as follows: TMPRSS2 mRNA expression in Calu-3, RT real-time PCR. In kind it is cell-based, human. Particulars: 24 hr. How it is done:
To quantify the human gene expression, Calu-3 seeded in a 12-well plate (220,000 cells) were stimulated with 100 uM, 500 uM and 1000 uM Carnitine alone for 24 h. RNA was extracted using TRIzol (Qiagen) as per standard protocol and total RNA was reverse transcribed using SuperScript II RT (Invitrogen). Expression levels of ACE-2 and TMPRSS2 were evaluated by SYBR real-time PCR using gene-specific primers as previously reported (Ma et al., Eye 2020;34:1212). GAPDH was used as an internal normalizer. […] Fold change in expression relative to that in untreated cells was determined using the standard ddCt method.
For orientation: Real-time PCR tracks product formation cycle by cycle.

Test [2] concerns ACE-2. The test is described as follows: Human study, serum ELISA, ACE-2. In kind it is in vivo. Here is the method: A human study was run with a total of 80 healthy male and female subjects ranging from 21 to 65 years of age, who were active (i.e. 30 minutes per day of moderate activity, 3 days per week) are randomized into two groups. […] Seventy-three subjects completed the trial and biomarker data were analyzed from the sera of the 73 completers. Sera were collected for analysis of C-Reactive Protein (CRP), ACE 1, ACE 2, TMPRSS 2, the Tumor Necrosis Factor alpha (TNF-alpha), and Furin at baseline in the beginning of the trial, at week 5 and 48 hr after an exercise challenge as described (Clinicaltrials.gov NCT04420377). The exercise challenge serves as surrogate to the inflammation stimulus.
To obtain human sera, venous blood was extracted by venipuncture of the antecubital vein using a 21-gauge syringe and collected into a 10 mL EDTA vacutainer tube (BD Vacutainer®, Becton, Dickinson and Company, Franklin Lakes, NJ) by a certified phlebotomist. […] Human ACE-1, ACE-2, TMPRSS2, Furin, CRP and TNF-alpha protein levels were assessed using commercially available ELISA kits, according the manufacturer recommendations, ACE-1 (R&D systems Inc., Minneapolis, MN, USA), ACE-2 (RayBiotech inc., Peachtree Corners, GA), TMPRSS2 (Novus Biologicals, Littleton, CO), CRP (R&D Systems Inc., Minneapolis, MN), TNF-alpha (Novus Biologicals, Littleton, CO), and Furin (Sigma Aldrich, St. Louis, MO). […]
For orientation: An ELISA detects its analyte on a solid surface through an enzyme-linked reagent.

Test [3] has as its system ACE-1. The test is described as follows: Rat plasma serum ELISA, ACE-1. In kind it is in vivo. Particulars: exercised rats, FIG. 5A.
The test system of test [4] is TMPRSS2. The test is described as follows: Rat plasma serum ELISA, TMPRSS2. In kind it is in vivo. To be noted: exercised rats, FIG. 5D.
The subject of test [5] is glutathione peroxidase. The test is described as follows: Antioxidant capacity: glutathione peroxidase in exercised rats. In kind it is in vivo, rat. Particulars: 6 weeks. How it is done: (§1) Fifty-six (56) Male Wistar rats that were 8-week old were obtained. The rats were reared at the temperature of 22 ± 2° C., the humidity of 55 ± 5%, and with a 12-hrs light-12-hrs dark cycle. All procedures involving rats were conducted in strict compliance with the relevant laws, the Animal Welfare Act, Public Health Services Policy, and guidelines established by the Institutional Animal Care and Use Committee of the Institute of the contracted University which completed the study.
(§2) After a week of the adaptation period, the rats were divided into eight equal groups containing seven rats each. The initial body weights of the rats were similar in all the groups (214.53 grams ± 4.67; P > 0.05).
(§3) Groups 1 and 2 were not subjected to an exercise routine. Groups 3-8 were subjected to an exercise regimen consisting of a week training period with an incremental exercise capacity described below. After the week training period the exercise regimen followed was each rat in Groups 3-8 were subjected to 6 weeks of running at 25 m/min during 45 min […]. […] These correspond to 0, 250, 500, 1000, 2000 and 4000 mg per day for humans, respectively.
(§4) The exercised rats were subjected to treadmill exercise on a motorized rodent treadmill (Commat Limited, Ankara, Turkey). The treadmill contained a stimulus grid at the back end of the treadmill giving an electric shock when the animal placed its paw on the grid. […] To eliminate the diurnal variations, all exercise tests were applied during the same time of the day. The week of training period was provided as pre-training practice for the animals to get familiar with the treadmill equipment and handling. In doing so, the rats in the exercise training groups were accustomed by treadmill exercise over 5 days such that: (i) 1st day, 10 m/min for 10 min, (ii) 2nd day, 20 m/min for 10 min, (iii) 3rd day, 25 m/min for 10 min, (iv) 4th day, 25 m/min for 20 min and (v) 5th day, 25 m/min for 30 min. After the training period, the rats in treadmill exercise groups ran on the treadmill 25 m/min for 45 min/ per day and five days per week for 6 weeks according to the protocol described by Sahin et al. Capsaicinoids Improve the Consequences of Physical Activity. Toxicol Rep. 2018;5:598-607, which is hereby incorporated by reference.
(§5) The exercise regimen was used to induce an inflammation and oxidative stress conditions. […] The results of malondialdehyde, superoxide dismutase, catalase, and glutathione peroxidase for each rat group are shown in TABLE 2.

Test [6] deals with malondialdehyde. The test is described as follows: Antioxidant capacity: malondialdehyde in exercised rats. In kind it is in vivo, rat. Particulars: 6 weeks. Here is the method:
as §1, §2, §3, §4, §5

Setting [7] is: Car200: 200 mg/kg oral gavage, no exercise.
Where [8] appears, read: Ex+Car25: exercise, 25 mg/kg oral gavage.
[9] abbreviates: Ex+Car50: exercise, 50 mg/kg oral gavage.
Setting [10] is: Ex+Car100: exercise, 100 mg/kg oral gavage.
The mark [11] stands for this setting: Ex+Car200: exercise, 200 mg/kg oral gavage.
Where [12] appears, read: Ex+Car400: exercise, 400 mg/kg oral gavage.

The source of these data is patent US20230346735A1, “Nutritional Composition Comprising Carnitine and Method for Treating or Preventing an Infection in a Mammal” (priority 2020, published 2023).

Marks after values point to notes of the source that are not given here.

With `C[N+](C)(C)C[C@H](O)CC(=O)[O-]` [L-carnitine], the “TMPRSS2 mRNA decrease” value in test [1] (Calu-3, 500 uM) is “at least 75%”. For the same molecule, the “TMPRSS2 mRNA increase” value in test [1] (Calu-3, between 50-100 uM) is on record as 1.5-4 fold. Further, the ACE-2 serum levels entry in test [2] (2 g daily, 5 weeks, 48 hours after exercise challenge, versus placebo) is given as “significant decrease”. In addition, in test [2] (group A, from baseline compared to Wk5, p=0.046), the “decrease in ACE-2” value came to 8%. In addition, in test [3], the “serum ACE-1” value is reported as “near normal levels”. Besides, the “serum TMPRSS2” value in test [4] is “controlling TMPRSS2”. Besides, the GSHPx in test [5] (setting [7]) is recorded as 48.74±1.11^d U/mg protein; in test [5] (setting [8]), 49.75±1.08^d U/mg protein; in test [5] (setting [9]) it was 55.91±0.85^c U/mg protein; in test [5] (setting [10]), 59.57±0.68^bc U/mg protein; in test [5] (setting [11]) it was 62.58+1.03^b U/mg protein; in test [5] (setting [12]), 69.06±1.53^a U/mg protein. In addition, the MDA in test [6] (setting [7]) was 0.693±0.021^b µmol/L; in test [6] (setting [8]) it was 0.599±0.021^c µmol/L; in test [6] (setting [9]), 0.549±0.014^cd µmol/L; in test [6] (setting [10]), 0.553±0.018^cd µmol/L; in test [6] (setting [11]) it was 0.489±0.019^de µmol/L; in test [6] (setting [12]), 0.419±0.009^e µmol/L.
